Test results taken from patent US20150065470A1, “Steroid Sulfatase Inhibitor Regimen for the Treatment of Endometriosis” (priority 2012, published 2015).

Experiments:
STS [1] = target: T1, STS (Homo sapiens, UniProt P08842); conditions: cited from earlier work
T1 sequence (P08842 22-583): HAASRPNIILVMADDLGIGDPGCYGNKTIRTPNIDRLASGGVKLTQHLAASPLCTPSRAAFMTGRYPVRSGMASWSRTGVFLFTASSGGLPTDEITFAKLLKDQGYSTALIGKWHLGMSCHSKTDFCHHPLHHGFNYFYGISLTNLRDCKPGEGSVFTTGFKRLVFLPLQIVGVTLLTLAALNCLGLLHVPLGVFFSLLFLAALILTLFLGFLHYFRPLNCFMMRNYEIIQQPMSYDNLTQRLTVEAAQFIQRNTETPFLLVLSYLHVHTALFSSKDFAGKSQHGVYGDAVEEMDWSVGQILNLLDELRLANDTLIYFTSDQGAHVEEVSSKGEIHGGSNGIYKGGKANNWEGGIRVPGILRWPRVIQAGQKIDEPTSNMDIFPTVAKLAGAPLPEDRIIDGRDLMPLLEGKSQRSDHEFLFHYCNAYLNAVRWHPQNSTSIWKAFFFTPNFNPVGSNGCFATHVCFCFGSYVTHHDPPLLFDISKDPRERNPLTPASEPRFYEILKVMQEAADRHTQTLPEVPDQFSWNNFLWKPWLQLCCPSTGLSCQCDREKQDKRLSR

STS [2] = target: T1, STS; conditions: cited from earlier work; remark: listed apart in the source
[3] = Safety, tolerability and post-treatment menstruation cycles, Example 2; conditions: follow-up, ultrasound
From the text: Menstruation cycle length was not influenced by the treatment. […] Sizes of right and left ovary differed slightly for each subject, but no clinically relevant changes were identified by the gynaecologists.

STS activity in PBMCs = target: T2, STS activity in PBMCs (Homo sapiens, UniProt P08842); test: STS activity in PBMCs, Example 2 (LC-MS/MS); assay type: in vivo; conditions: E2MATE 4 mg weekly and/or NETA 10 mg daily for 4 weeks
T2 construct: Pharmacodynamic properties were investigated by assessment of the STS activity in PBMCs; endogenous in cells; host or cells: peripheral blood mononuclear cells (PBMCs) of dosed women
T2 sequence (P08842 22-583): T1 sequence (P08842 22-583)
Method: (§1) STS activity was determined by spiking specimens with labelled E1-S and by measuring its conversion to E1 per gram protein under standardized incubation conditions using LC-MS/MS. Protein concentration was evaluated with a validated colorimetric assay (Bradford method).

[4] = target: T3, Steroid Sulfatase in endometrium (Homo sapiens, UniProt P08842); test: STS activity in endometrium, Example 2 (LC-MS/MS); assay type: in vivo; conditions: E2MATE 4 mg weekly and/or NETA 10 mg daily for 4 weeks
T3 construct: from tissue; host or cells: endometrium (biopsies) of dosed women
T3 sequence (P08842 22-583): T1 sequence (P08842 22-583)
Method: as §1

E2 and P4; T and D4A = test: Hormone profiles (E2, P4, T, D4A), Example 2; assay type: in vivo, human
Method: Hormone profiles were determined as described in Example 1.

## NS(=O)(=O)Oc1ccc2c3c(c(=O)oc2c1)CCCCC3
STS [1]
  blocking STS activity in both eutopic and ectopic tissues: effective in blocking STS activity

## C[C@]12CCC3c4ccc(OS(N)(=O)=O)cc4CCC3C1CCC2=O (stereo partly drawn) [EMATE, Estrone-3-o-sulfamate]
STS [2]
  STS inhibition: active STS inhibitors

## C#C[C@]1(OC(C)=O)CC[C@H]2[C@@H]3CCC4=CC(=O)CC[C@@H]4[C@H]3CC[C@@]21C [NETA, norethindrone (norethisterone) acetate, reference compound]
[3]
  ovarian size: no apparent effect
STS activity in PBMCs; Day 4
  mean percentage inhibition of STS activity in PBMCs: 12%
STS activity in PBMCs
  average inhibition of STS activity in PBMCs: 4%
[4]
  AVG [%] average inhibition of Steroid Sulfatase in endometrium (average effect over time (AUC)): 14.9 (27.0) %
  Emax [%] maximal inhibition of Steroid Sulfatase in endometrium: 46.7 (42.8) %
E2 and P4; T and D4A; first cycle up to Day 29, normal increase on Day 43
  mean concentration-time profiles in E2 and P4: suppressed
E2 and P4; T and D4A; multiple dose administration
  mean concentration-time profiles for T and D4A: No relevant differences
